± gives the uncertainty stated by the source.
Experiment: xn = mol fraction of the nth substance listed

CCOC(=O)[C@@H](O)[C@H](O)C(=O)OCC + CCCCO
viscosity [mPa·s], 101 kPa
Settings	x1 = 0.0999	x1 = 0.1999	x1 = 0.3	x1 = 0.4001	x1 = 0.4999	x1 = 0.5999	x1 = 0.7001	x1 = 0.8001	x1 = 0.8999
293.15 K	3.887 ± 0.027	5.56 ± 0.038	8.24 ± 0.057	12.44 ± 0.087	18.99 ± 0.14	29.36 ± 0.21	42.81 ± 0.32	68.14 ± 0.55	118.3 ± 1.5
298.15 K	3.353 ± 0.023	4.704 ± 0.032	6.807 ± 0.047	9.946 ± 0.069	14.79 ± 0.11	22.09 ± 0.16	31.37 ± 0.23	47.6 ± 0.36	78.41 ± 0.72
303.15 K	2.902 ± 0.02	3.987 ± 0.028	5.63 ± 0.039	8.08 ± 0.057	11.64 ± 0.083	16.9 ± 0.12	23.32 ± 0.17	34.35 ± 0.26	54.15 ± 0.39
308.15 K	2.527 ± 0.018	3.408 ± 0.024	4.729 ± 0.033	6.627 ± 0.047	9.328 ± 0.066	13.22 ± 0.095	17.74 ± 0.13	25.53 ± 0.19	38.75 ± 0.3
313.15 K	2.217 ± 0.016	2.928 ± 0.021	3.975 ± 0.028	5.454 ± 0.039	7.552 ± 0.054	10.48 ± 0.076	13.83 ± 0.1	19.41 ± 0.14	28.56 ± 0.22
318.15 K	1.953 ± 0.014	2.557 ± 0.018	3.433 ± 0.025	4.631 ± 0.033	6.283 ± 0.045	8.549 ± 0.062	11.11 ± 0.082	15.2 ± 0.11	21.73 ± 0.17
323.15 K	1.746 ± 0.013	2.26 ± 0.017	2.993 ± 0.022	3.98 ± 0.029	5.303 ± 0.038	7.092 ± 0.052	9.107 ± 0.067	12.19 ± 0.091	16.99 ± 0.13

CCOC(=O)c1ccccc1 + CCCCCCCC
101 kPa
Settings	viscosity [mPa·s]
298.15 K, x2 = 0.0634	1.743 ± 0.054
298.15 K, x2 = 0.1034	1.624 ± 0.051
298.15 K, x2 = 0.1463	1.503 ± 0.047
298.15 K, x2 = 0.1843	1.405 ± 0.044
298.15 K, x2 = 0.2315	1.299 ± 0.041
298.15 K, x2 = 0.2774	1.203 ± 0.038
298.15 K, x2 = 0.3224	1.125 ± 0.035
298.15 K, x2 = 0.4189	0.973 ± 0.031
298.15 K, x2 = 0.4608	0.92 ± 0.029
298.15 K, x2 = 0.5113	0.861 ± 0.027
298.15 K, x2 = 0.5549	0.813 ± 0.026
298.15 K, x2 = 0.6018	0.767 ± 0.024
298.15 K, x2 = 0.6476	0.726 ± 0.023
298.15 K, x2 = 0.6978	0.686 ± 0.022
298.15 K, x2 = 0.7588	0.644 ± 0.02
298.15 K, x2 = 0.8037	0.616 ± 0.02
298.15 K, x2 = 0.8646	0.583 ± 0.019
298.15 K, x2 = 0.9214	0.556 ± 0.018
303.15 K, x1 = 0.1144	0.526 ± 0.011
303.15 K, x1 = 0.2227	0.58 ± 0.012
303.15 K, x1 = 0.3291	0.655 ± 0.014
303.15 K, x1 = 0.4327	0.738 ± 0.016
303.15 K, x1 = 0.532	0.837 ± 0.018
303.15 K, x1 = 0.6312	0.961 ± 0.02
303.15 K, x1 = 0.7281	1.11 ± 0.023
303.15 K, x1 = 0.8205	1.29 ± 0.027
303.15 K, x1 = 0.9123	1.505 ± 0.031
308.15 K, x1 = 0.1144	0.499 ± 0.011
308.15 K, x1 = 0.2227	0.552 ± 0.012
308.15 K, x1 = 0.3291	0.616 ± 0.013
308.15 K, x1 = 0.4327	0.697 ± 0.015
308.15 K, x1 = 0.532	0.786 ± 0.017
308.15 K, x1 = 0.6312	0.896 ± 0.019
308.15 K, x1 = 0.7281	1.033 ± 0.022
308.15 K, x1 = 0.8205	1.197 ± 0.025
308.15 K, x1 = 0.9123	1.385 ± 0.029
308.15 K, x2 = 0.0649	1.485 ± 0.046
308.15 K, x2 = 0.1092	1.382 ± 0.043
308.15 K, x2 = 0.1488	1.3 ± 0.041
308.15 K, x2 = 0.193	1.212 ± 0.038
308.15 K, x2 = 0.2347	1.13 ± 0.035
308.15 K, x2 = 0.2789	1.054 ± 0.033
308.15 K, x2 = 0.3252	0.98 ± 0.031
308.15 K, x2 = 0.3696	0.919 ± 0.029
308.15 K, x2 = 0.4206	0.854 ± 0.027
308.15 K, x2 = 0.4626	0.807 ± 0.025
308.15 K, x2 = 0.5118	0.757 ± 0.024
308.15 K, x2 = 0.5624	0.709 ± 0.022
308.15 K, x2 = 0.5958	0.682 ± 0.022
308.15 K, x2 = 0.6528	0.639 ± 0.02
308.15 K, x2 = 0.7049	0.605 ± 0.019
308.15 K, x2 = 0.756	0.575 ± 0.018
308.15 K, x2 = 0.8027	0.55 ± 0.018
308.15 K, x2 = 0.8565	0.525 ± 0.017
308.15 K, x2 = 0.9175	0.501 ± 0.016
313.15 K, x1 = 0.1144	0.468 ± 0.01
313.15 K, x1 = 0.2227	0.516 ± 0.011
313.15 K, x1 = 0.3291	0.574 ± 0.012
313.15 K, x1 = 0.4327	0.649 ± 0.014
313.15 K, x1 = 0.532	0.732 ± 0.015
313.15 K, x1 = 0.6312	0.835 ± 0.018
313.15 K, x1 = 0.7281	0.961 ± 0.02
313.15 K, x1 = 0.8205	1.105 ± 0.023
313.15 K, x1 = 0.9123	1.277 ± 0.027
318.15 K, x2 = 0.0385	1.272 ± 0.04
318.15 K, x2 = 0.0833	1.188 ± 0.037
318.15 K, x2 = 0.1243	1.117 ± 0.035
318.15 K, x2 = 0.1716	1.038 ± 0.033
318.15 K, x2 = 0.2145	0.972 ± 0.03
318.15 K, x2 = 0.263	0.905 ± 0.028
318.15 K, x2 = 0.3062	0.85 ± 0.027
318.15 K, x2 = 0.356	0.793 ± 0.025
318.15 K, x2 = 0.4002	0.747 ± 0.024
318.15 K, x2 = 0.4505	0.698 ± 0.022
318.15 K, x2 = 0.4957	0.662 ± 0.021
318.15 K, x2 = 0.5474	0.622 ± 0.02
318.15 K, x2 = 0.5939	0.592 ± 0.019
318.15 K, x2 = 0.6472	0.56 ± 0.018
318.15 K, x2 = 0.6945	0.536 ± 0.017
318.15 K, x2 = 0.7483	0.51 ± 0.016
318.15 K, x2 = 0.7987	0.491 ± 0.016
318.15 K, x2 = 0.8549	0.469 ± 0.015
318.15 K, x2 = 0.9034	0.452 ± 0.014

OCC(F)(F)C(F)F + O
viscosity [mPa·s], 100 kPa
Settings	x1 = 0.1237	x1 = 0.2532	x1 = 0.3747	x1 = 0.5024	x1 = 0.6133	x1 = 0.7598	x1 = 0.8707
298.15 K	2.07 ± 0.063	2.716 ± 0.078	3.002 ± 0.081	3.314 ± 0.084	3.523 ± 0.085	3.91 ± 0.089	4.341 ± 0.095
323.15 K	1.032 ± 0.032	1.34 ± 0.039	1.478 ± 0.04	1.59 ± 0.041	1.678 ± 0.041	1.807 ± 0.041	1.961 ± 0.043

CC1CCCCC1 + CCCCCCCCCCCC
viscosity [mPa·s], 101 kPa
Settings	x1 = 0.1004	x1 = 0.2017	x1 = 0.2968	x1 = 0.406	x1 = 0.5059	x1 = 0.6011	x1 = 0.6993	x1 = 0.7989	x1 = 0.898
298.15 K	1.303 ± 0.022	–	–	1.084 ± 0.018	1.014 ± 0.017	0.948 ± 0.016	0.88 ± 0.015	0.811 ± 0.014	0.744 ± 0.013
303.15 K	1.186 ± 0.02	1.124 ± 0.019	1.067 ± 0.018	1.004 ± 0.017	0.94 ± 0.016	–	0.821 ± 0.014	0.756 ± 0.013	0.694 ± 0.012
308.15 K	1.096 ± 0.018	1.037 ± 0.018	0.981 ± 0.017	0.919 ± 0.016	0.862 ± 0.015	0.809 ± 0.014	0.755 ± 0.013	0.701 ± 0.012	0.647 ± 0.012

[Li+].[O-][Cl+3]([O-])([O-])[O-] + CC#N
viscosity [mPa·s], 101 kPa
Settings	x1 = 0.0128	x1 = 0.0255	x1 = 0.0301	x1 = 0.536
296.15 K	0.444 ± 0.012	–	–	0.66 ± 0.017
297.15 K	–	0.53 ± 0.014	–	–
313.15 K	0.399 ± 0.011	0.473 ± 0.013	0.958 ± 0.025	0.628 ± 0.017

CCOC(=O)[C@@H](O)[C@H](O)C(=O)OCC + CCCCCCO
viscosity [mPa·s], 101 kPa
Settings	x1 = 0.1001	x1 = 0.2	x1 = 0.3	x1 = 0.4	x1 = 0.5	x1 = 0.5998	x1 = 0.7001	x1 = 0.8	x1 = 0.8995
293.15 K	6.18 ± 0.049	7.861 ± 0.062	10.57 ± 0.083	14.54 ± 0.11	20.8 ± 0.16	30.68 ± 0.24	43.54 ± 0.34	72.93 ± 0.64	122.9 ± 1.6
298.15 K	5.252 ± 0.042	6.543 ± 0.052	8.559 ± 0.067	11.55 ± 0.09	16.09 ± 0.13	22.97 ± 0.18	31.66 ± 0.25	50.5 ± 0.37	81.01 ± 0.77
303.15 K	4.449 ± 0.036	5.484 ± 0.043	7.046 ± 0.056	9.307 ± 0.073	12.59 ± 0.098	17.51 ± 0.14	23.57 ± 0.18	36.18 ± 0.28	55.71 ± 0.41
308.15 K	3.803 ± 0.031	4.618 ± 0.037	5.836 ± 0.046	7.569 ± 0.06	10.04 ± 0.079	13.64 ± 0.11	18 ± 0.14	26.73 ± 0.21	39.73 ± 0.31
313.15 K	3.251 ± 0.026	3.893 ± 0.031	4.85 ± 0.039	6.204 ± 0.049	8.087 ± 0.064	10.78 ± 0.084	13.99 ± 0.11	20.22 ± 0.16	29.19 ± 0.23
318.15 K	2.838 ± 0.023	3.369 ± 0.027	4.146 ± 0.033	5.219 ± 0.041	6.697 ± 0.053	8.77 ± 0.069	11.19 ± 0.087	15.77 ± 0.12	22.15 ± 0.17
323.15 K	2.506 ± 0.021	2.946 ± 0.024	3.581 ± 0.029	4.451 ± 0.036	5.632 ± 0.045	7.262 ± 0.057	9.138 ± 0.071	12.59 ± 0.098	17.3 ± 0.14

Reference: the CheMixHub viscosity set
